{"source": "paper PMC5113031", "about": "“Variant Exported Blood-Stage Proteins Encoded by Plasmodium Multigene Families Are Expressed in Liver Stages Where They Are Exported into the Parasitophorous Vacuole” (PLoS Pathogens, 2016)", "target": "T1, P. falciparum Fam-A (PF3D7_1463500) (Plasmodium falciparum, UniProt Q8IKK1)", "T1 construct": "region encoding START domain, codon-optimised, cloned in pMALc2x, N-terminal His6, E. coli BL21(DE3), Ni and SEC, monomeric", "T1 sequence (Q8IKK1 entry or part of it)": "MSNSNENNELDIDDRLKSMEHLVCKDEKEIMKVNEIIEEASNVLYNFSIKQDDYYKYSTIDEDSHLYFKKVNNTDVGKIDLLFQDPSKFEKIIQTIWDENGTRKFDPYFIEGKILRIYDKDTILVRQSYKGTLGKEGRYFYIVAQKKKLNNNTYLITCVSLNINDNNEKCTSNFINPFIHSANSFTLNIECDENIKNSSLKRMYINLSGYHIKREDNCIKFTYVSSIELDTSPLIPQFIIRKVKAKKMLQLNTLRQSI", "experiment": "[…]-PC transfer from donor to acceptor vesicles", "format": "biochemical", "settings": "pH 7.4, 37 °C, 30 min, 25 μg/ml protein, BSA 1 mg/ml; labelled compound (14C)", "data": [{"smiles": "CCCCCCCCCCCCCCCC(=O)OC[C@H](COP(=O)([O-])OCC[N+](C)(C)C)OC(=O)CCCCCCCCCCCCCCC", "note": "[L-α-DiPalmitoyl-Phosphatidylcholine]", "values": [{"measurement": "PC transfer activity", "value": "P. falciparum Fam-A reproducibly showed a lower, but detectable, level of PC transfer activity"}]}]}
